Measured values taken from patent US20230085307A1, “PYRIDAZINONE COMPOUND AND HERBICIDE” (NISSAN CHEMICAL CORPORATION, priority 2019, published 2023).

Legend:
blackgrass = experiment: Test Example 5: herbicidal effect by foliage application, plastic box (Table 20, symbol J); type: in vivo, blackgrass (Alopecurus myosuroides); conditions: foliage application, 320 g/ha, three weeks after application
Procedure, shortened: (§1)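 Post-emergence foliar test in sterilized diluvial soil. Compound applied as water-diluted emulsion at a predetermined rate to 14-day-old plants; evaluation at three weeks.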

windgrass = experiment: Test Example 5: herbicidal effect by foliage application, plastic box (Table 20, symbol L); type: in vivo, windgrass (Apera spica-venti); conditions: foliage application, 320 g/ha, three weeks after application
Procedure, shortened: as §1

Japanese bulrush = experiment: Test Example 1: herbicidal activity, application before weed generation under submerged conditions (Table 16, symbol B); type: in vivo, Japanese bulrush (Schoenoplectus juncoides); conditions: amount of applied herbicide 320 g/ha
Description: (§2) [Test Example 1] Herbicidal Activity Test by Application before Weed Generation under Submerged Conditions After alluvial soil was placed into 1/10000 are of Wagner pot, water was poured and mixed to form a submerged condition having a water depth of 4 cm. Seeds of late watergrass, Japanese bulrush, and oval-leafed pondweed were sowed in a mixed manner in the aforementioned pot, and then 2.5 leaf stage rice plant seedlings were transplanted thereto. On the day of sowing seeds, the emulsion agent of the compound of the present invention prepared according to Formulation Example 2 was diluted with water so as to achieve a predetermined herbicide amount, and the diluted emulsion agent was applied to the surface of the water. The pot was placed in a greenhouse at 25° C. to 30° C. for growth of the plants. Three weeks after the herbicide application, the effect of the herbicide on each plant was evaluated according to the following criteria. Evaluation Criteria 5: Herbicidal rate of 90% or more (almost completely withered) 4: Herbicidal rate of 70% or more and less than 90% 3: Herbicidal rate of 40% or more and less than 70% 2: Herbicidal rate of 20% or more and less than 40% 1: Herbicidal rate of 5% or more and less than 20% 0: Herbicidal rate of 5% or less (almost no effect)

oval-leafed pondweed = experiment: Test Example 1: herbicidal activity, application before weed generation under submerged conditions (Table 16, symbol C); type: in vivo, oval-leafed pondweed (Monochoria vaginalis); conditions: amount of applied herbicide 320 g/ha
Description: as §2

wild oat = experiment: Test Example 5: herbicidal effect by foliage application, plastic box (Table 20, symbol I); type: in vivo, wild oat (Avena fatua); conditions: foliage application, 320 g/ha, three weeks after application
Procedure, shortened: as §1

southern crabgrass = experiment: Test Example 5: herbicidal effect by foliage application, plastic box (Table 20, symbol F); type: in vivo, southern crabgrass (Digitaria ciliaris); conditions: foliage application, 320 g/ha, three weeks after application
Procedure, shortened: as §1

lambsquarters = experiment: Test Example 5: herbicidal effect by foliage application, plastic box (Table 20, symbol O); type: in vivo, lambsquarters (Chenopodium album); conditions: foliage application, 320 g/ha, three weeks after application
Procedure, shortened: as §1

late watergrass = experiment: Test Example 1: herbicidal activity, application before weed generation under submerged conditions (Table 16, symbol A); type: in vivo, late watergrass (Echinochloa oryzicola); conditions: amount of applied herbicide 320 g/ha
Description: as §2

green foxtail = experiment: Test Example 5: herbicidal effect by foliage application, plastic box (Table 20, symbol G); type: in vivo, green foxtail (Setaria viridis); conditions: foliage application, 320 g/ha, three weeks after application
Procedure, shortened: as §1

Italian ryegrass = experiment: Test Example 5: herbicidal effect by foliage application, plastic box (Table 20, symbol K); type: in vivo, Italian ryegrass (Lolium multiflorum); conditions: foliage application, 320 g/ha, three weeks after application
Procedure, shortened: as §1

velvetleaf = experiment: Test Example 5: herbicidal effect by foliage application, plastic box (Table 20, symbol M); type: in vivo, velvetleaf (Abutilon theophrasti); conditions: foliage application, 320 g/ha, three weeks after application
Procedure, shortened: as §1

barnyard grass [1] = experiment: Test Example 5: herbicidal effect by foliage application, plastic box (Table 20, symbol H); type: in vivo, barnyard grass (Echinochloa crus-galli); conditions: foliage application, 320 g/ha, three weeks after application
Procedure, shortened: as §1

persian speedwell = experiment: Test Example 5: herbicidal effect by foliage application, plastic box (Table 20, symbol R); type: in vivo, Persian speedwell (Veronica persica); conditions: foliage application, 320 g/ha, three weeks after application
Procedure, shortened: as §1

barnyard grass [2] = experiment: Test Example 3: herbicidal effect by foliage application, Wagner pot (Table 18, symbol H); type: in vivo, barnyard grass (Echinochloa crus-galli); conditions: amount of applied herbicide 320 g/ha
Procedure, shortened: (§3)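 Plants were sown in alluvial soil held under 0.1–0.5 cm standing water and grown 14 days in a greenhouse at 25–30 °C. An emulsifiable formulation, water-diluted to the set dose, was then sprayed onto the foliage, and effects were scored three weeks later using previously defined criteria.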

rice flat sedge = experiment: Test Example 3: herbicidal effect by foliage application, Wagner pot (Table 18, symbol E); type: in vivo, rice flat sedge (Cyperus iria); conditions: amount of applied herbicide 320 g/ha
Procedure, shortened: as §3

Chinese sprangletop = experiment: Test Example 3: herbicidal effect by foliage application, Wagner pot (Table 18, symbol D); type: in vivo, chinese sprangletop (Leptochloa chinensis); conditions: amount of applied herbicide 320 g/ha
Procedure, shortened: as §3

Row | SMILES | herbicidal effect on blackgrass (J) (blackgrass) | herbicidal effect on windgrass (L) (windgrass) | Herbicidal effect, B: Japanese bulrush (Japanese bulrush) | Herbicidal effect, C: oval-leafed pondweed (oval-leafed pondweed) | herbicidal effect on wild oat (I) (wild oat) | herbicidal effect on southern crabgrass (F) (southern crabgrass) | herbicidal effect on lambsquarters (O) (lambsquarters) | Herbicidal effect, A: late watergrass (late watergrass) | herbicidal effect on green foxtail (G) (green foxtail) | herbicidal effect on Italian ryegrass (K) (Italian ryegrass) | herbicidal effect on velvetleaf (M) (velvetleaf) | herbicidal effect on barnyard grass (H) (barnyard grass [1]) | herbicidal effect on persian speedwell (R) (persian speedwell) | Herbicidal effect on H (barnyard grass), foliage application (barnyard grass [2]) | Herbicidal effect on E (rice flat sedge), foliage application (rice flat sedge) | Herbicidal effect on D (Chinese sprangletop), foliage application (Chinese sprangletop)
1 | Cc1cc2sc(-c3ccc(OC(F)F)cc3)c(-c3c(O)c(C)nn(C)c3=O)c2cc1C [5-098] | 0 (Herbicidal rate of 5% or less (almost no effect)) | 0 (Herbicidal rate of 5% or less (almost no effect)) | 0 (Herbicidal rate of 5% or less (almost no effect)) | 0 (Herbicidal rate of 5% or less (almost no effect)) | 0 (Herbicidal rate of 5% or less (almost no effect)) | 0 (Herbicidal rate of 5% or less (almost no effect)) | 0 (Herbicidal rate of 5% or less (almost no effect)) | 3 (Herbicidal rate of 40% or more and less than 70%) | 0 (Herbicidal rate of 5% or less (almost no effect)) | 0 (Herbicidal rate of 5% or less (almost no effect)) | 0 (Herbicidal rate of 5% or less (almost no effect)) | 0 (Herbicidal rate of 5% or less (almost no effect)) | 5 (Herbicidal rate of 90% or more (almost completely withered)) |  |  | 
2 | Cc1nn(C)c(=O)c(-c2c(-c3ccc(OC(F)(F)F)cc3)oc3ccc(F)cc23)c1O [9-033] |  |  | 0 (Herbicidal rate of 5% or less (almost no effect)) | 0 (Herbicidal rate of 5% or less (almost no effect)) |  |  |  | 2 (Herbicidal rate of 20% or more and less than 40%) |  |  |  |  |  | 4 (Herbicidal rate of 70% or more and less than 90%) | 5 (Herbicidal rate of 90% or more (almost completely withered)) | 3 (Herbicidal rate of 40% or more and less than 70%)
